Measured values published in patent US10766902B2, “Wee-1 inhibiting pyrazolopyrimidinone compounds” (ALMAC DISCOVERY LIMITED, priority 2016, dated 2020).

Molecular target: Wee-1 kinase (Homo sapiens (Human), UniProt P30291)
Assay: Measurement of Wee-1 kinase activity (ADP-Glo luminescence)
Format: biochemical
Details: read-out: Wee1 IC50
Summary of the method: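 Activated Wee-1 preincubated 30 min at RT with compound in Tris/MgCl2 buffer with BSA and DTT, then reacted 1 h at RT with poly(Lys,Tyr 4:1) (2.0 μg/mL) and 30 μM ATP as added aliquot. ADP formed measured by ADP-Glo luminescence; IC50 by non-linear regression of % inhibition.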

Chain of Wee-1 kinase (P30291 whole entry): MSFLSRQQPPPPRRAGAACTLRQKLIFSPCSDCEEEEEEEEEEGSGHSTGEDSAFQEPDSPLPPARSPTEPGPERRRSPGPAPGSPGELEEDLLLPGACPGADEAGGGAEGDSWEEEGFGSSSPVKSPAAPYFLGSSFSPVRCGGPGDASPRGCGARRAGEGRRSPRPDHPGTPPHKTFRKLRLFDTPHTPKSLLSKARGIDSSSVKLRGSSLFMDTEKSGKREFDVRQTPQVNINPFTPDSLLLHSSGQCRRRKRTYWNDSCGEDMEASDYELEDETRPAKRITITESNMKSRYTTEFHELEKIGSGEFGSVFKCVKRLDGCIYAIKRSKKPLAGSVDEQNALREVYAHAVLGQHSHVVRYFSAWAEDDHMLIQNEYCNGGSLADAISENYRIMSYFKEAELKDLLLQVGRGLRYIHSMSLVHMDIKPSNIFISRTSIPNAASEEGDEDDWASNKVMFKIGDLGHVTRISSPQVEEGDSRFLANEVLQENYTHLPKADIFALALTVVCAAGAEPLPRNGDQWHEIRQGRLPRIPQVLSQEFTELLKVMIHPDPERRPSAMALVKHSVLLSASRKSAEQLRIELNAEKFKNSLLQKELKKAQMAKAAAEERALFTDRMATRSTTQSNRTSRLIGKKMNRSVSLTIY

| Compound | IC50 [nM] |
| --- | --- |
| C=CCn1c(=O)c2cnc(Nc3ccc(N4C[C@@H]5C[C@H]4CO5)cc3)nc2n1-c1cccc(N=S(C)(C)=O)n1 [Example 68, 1-(6-{[Dimethyl(oxo)-λ^6-sulfanylidene]amino}pyridin-2-yl)-6-({4-[(1S,4S)-2-oxa-5-azabicyclo[2.2.1]heptan-5-yl]phenyl}amino)-2-(prop-2-en-1-yl)-1H,2H,3H-pyrazolo[3,4-d]pyrimidin-3-one] | 0.3 |
| C=CCn1c(=O)c2cnc(Nc3ccc(F)nc3)nc2n1-c1cccc(N=S(C)(C)=O)n1 [Example 70, 1-(6-{[Dimethyl(oxo)-λ^6-sulfanylidene]amino}pyridin-2-yl)-6-[(6-fluoropyridin-3-yl)amino]-2-(prop-2-en-1-yl)-1H,2H,3H-pyrazolo[3,4-d]pyrimidin-3-one] | 2.5 |
| CC(C)n1c(=O)c2cnc(Nc3ccc(C#N)cc3)nc2n1-c1cccc(N=S(C)(C)=O)n1 [Example 71, 4-{[1-(6-{[Dimethyl(oxo)-λ^6-sulfanylidene]amino}pyridin-2-yl)-3-oxo-2-(propan-2-yl)-1H,2H,3H-pyrazolo[3,4-d]pyrimidin-6-yl]amino}benzonitrile] | 26 |
| CC(C)n1c(=O)c2cnc(Nc3ccc(C(F)(F)F)cc3)nc2n1-c1cccc(N=S(C)(C)=O)n1 [Example 72, 1-(6-{[Dimethyl(oxo)-λ^6-sulfanylidene]amino}pyridin-2-yl)-2-(propan-2-yl)-6-{[4-(trifluoromethyl)phenyl]amino}-1H,2H,3H-pyrazolo[3,4-d]pyrimidin-3-one] | 19 |
| CC(C)n1c(=O)c2cnc(Nc3cccc(C(F)(F)F)c3)nc2n1-c1cccc(N=S(C)(C)=O)n1 [Example 73, 1-(6-{[Dimethyl(oxo)-λ^6-sulfanylidene]amino}pyridin-2-yl)-2-(propan-2-yl)-6-{[3-(trifluoromethyl)phenyl]amino}-1H,2H,3H-pyrazolo[3,4-d]pyrimidin-3-one] | 66 |
| C=CCn1c(=O)c2cnc(Nc3ccc(N4CCO[C@H](COC)C4)cc3)nc2n1-c1cncc(N=S(C)(C)=O)n1 [Example 74, 1-(6-{[Dimethyl(oxo)-λ^6-sulfanylidene]amino}pyrazin-2-yl)-6-({4-[(2S)-2-(methoxymethyl)morpholin-4-yl]phenyl}amino)-2-(prop-2-en-1-yl)-1H,2H,3H-pyrazolo[3,4-d]pyrimidin-3-one] | 0.3 |
| C=CCn1c(=O)c2cnc(Nc3ccc(F)cc3)nc2n1-c1cncc(N=S(C)(C)=O)n1 [Example 75, 1-(6-{[Dimethyl(oxo)-λ^6-sulfanylidene]amino}pyrazin-2-yl)-6-[(4-fluorophenyl)amino]-2-(prop-2-en-1-yl)-1H,2H,3H-pyrazolo[3,4-d]pyrimidin-3-one] | 1.4 |
| C=CCn1c(=O)c2cnc(Nc3cccnc3)nc2n1-c1cccc(N=S(C)(C)=O)n1 [Example 77, 1-(6-{[Dimethyl(oxo)-λ^6-sulfanylidene]amino}pyridin-2-yl)-2-(prop-2-en-1-yl)-6-[(pyridin-3-yl)amino]-1H,2H,3H-pyrazolo[3,4-d]pyrimidin-3-one] | 1000 |
| C=CCn1c(=O)c2cnc(Nc3cnn(C)c3)nc2n1-c1cccc(N=S2(=O)CCCC2)n1 [Example 78, 6-[(1-Methyl-1H-pyrazol-4-yl)amino]-1-{6-[(1-oxo-1λ^6-thiolan-1-ylidene)amino]pyridin-2-yl}-2-(prop-2-en-1-yl)-1H,2H,3H-pyrazolo[3,4-d]pyrimidin-3-one] | 2.5 |
| C=CCn1c(=O)c2cnc(Nc3cnn(C)c3)nc2n1-c1cccc(N=[S@@](C)(=O)c2ccccc2)n1 [Example 79, 1-(6-{[(S)-Methyl(oxo)phenyl-λ^6-sulfanylidene]amino}pyridin-2-yl)-6-[(1-methyl-1H-pyrazol-4-yl)amino]-2-(prop-2-en-1-yl)-1H,2H,3H-pyrazolo[3,4-d]pyrimidin-3-one] | 46 |
| C=CCn1c(=O)c2cnc(Nc3cnn(C(C)C)c3)nc2n1-c1cccc(N=S(C)(C)=O)n1 [Example 80, 1-(6-{[Dimethyl(oxo)-λ^6-sulfanylidene]amino}pyridin-2-yl)-2-(prop-2-en-1-yl)-6-{[1-(propan-2-yl)-1H-pyrazol-4-yl]amino}-1H,2H,3H-pyrazolo[3,4-d]pyrimidin-3-one] | 0.3 |
| C=CCn1c(=O)c2cnc(Nc3ccc(C(F)(F)F)nc3)nc2n1-c1cccc(N=S(C)(C)=O)n1 [Example 81, 1-(6-{[Dimethyl(oxo)-λ^6-sulfanylidene]amino}pyridin-2-yl)-2-(prop-2-en-1-yl)-6-{[6-(trifluoromethyl)pyridin-3-yl]amino}-1H,2H,3H-pyrazolo[3,4-d]pyrimidin-3-one] | 1.3 |
| C=CCn1c(=O)c2cnc(Nc3ccc(F)c(OC)c3)nc2n1-c1cccc(N=S(C)(C)=O)n1 [Example 82, 1-(6-{[Dimethyl(oxo)-λ^6-sulfanylidene]amino}pyridin-2-yl)-6-[(4-fluoro-3-methoxyphenyl)amino]-2-(prop-2-en-1-yl)-1H,2H,3H-pyrazolo[3,4-d]pyrimidin-3-one] | 0.4 |
| C=CCn1c(=O)c2cnc(Nc3cc(F)cc(F)c3)nc2n1-c1cccc(N=S(C)(C)=O)n1 [Example 84, 6-[(3,5-Difluorophenyl)amino]-1-(6-{[dimethyl(oxo)-λ^6-sulfanylidene]amino}pyridin-2-yl)-2-(prop-2-en-1-yl)-1H,2H,3H-pyrazolo[3,4-d]pyrimidin-3-one] | 1 |
| C=CCn1c(=O)c2cnc(Nc3cnn(CC(F)(F)F)c3)nc2n1-c1cccc(N=S(C)(C)=O)n1 [Example 85, 1-(6-{[Dimethyl(oxo)-λ^6-sulfanylidene]amino}pyridin-2-yl)-2-(prop-2-en-1-yl)-6-{[1-(2,2,2-trifluoroethyl)-1H-pyrazol-4-yl]amino}-1H,2H,3H-pyrazolo[3,4-d]pyrimidin-3-one] | 0.6 |
| C=CCn1c(=O)c2cnc(Nc3ccc(C4CCN(C5CCC5)CC4)c(C)c3)nc2n1-c1cccc(N=S(C)(C)=O)n1 [Example 88, 6-{[4-(1-Cyclobutylpiperidin-4-yl)-3-methylphenyl]amino}-1-(6-{[dimethyl(oxo)-λ^6-sulfanylidene]amino}pyridin-2-yl)-2-(prop-2-en-1-yl)-1H,2H,3H-pyrazolo[3,4-d]pyrimidin-3-one] | 0.4 |
| C=CCn1c(=O)c2cnc(Nc3ccc(N(C)CCOC)cc3)nc2n1-c1cccc(N=S(C)(C)=O)n1 [Example 89, 1-(6-{[Dimethyl(oxo)-λ^6-sulfanylidene]amino}pyridin-2-yl)-6-({4-[(2-methoxyethyl)(methyl)amino]phenyl}amino)-2-(prop-2-en-1-yl)-1H,2H,3H-pyrazolo[3,4-d]pyrimidin-3-one] | 0.2 |
| C=CCn1c(=O)c2cnc(Nc3ccc(N4CCC4)cc3)nc2n1-c1cccc(N=S(C)(C)=O)n1 [Example 90, 6-{[4-(Azetidin-1-yl)phenyl]amino}-1-(6-{[dimethyl(oxo)-λ^6-sulfanylidene]amino}pyridin-2-yl)-2-(prop-2-en-1-yl)-1H,2H,3H-pyrazolo[3,4-d]pyrimidin-3-one] | 0.2 |
| C=CCn1c(=O)c2cnc(Nc3ccc(N4CCOCC4)cc3)nc2n1-c1cccc(CN=S(C)(C)=O)n1 [Example 91, 1-[6-({[Dimethyl(oxo)-λ^6-sulfanylidene]amino}methyl)pyridin-2-yl]-6-{[4-(morpholin-4-yl)phenyl]amino}-2-(prop-2-en-1-yl)-1H,2H,3H-pyrazolo[3,4-d]pyrimidin-3-one] | 22.1 |
